Laboratory results: US11926574B2, “Dimethoxyphenylalkylamine activators of serotonin receptors” (Entheogenix Biosciences, Inc., priority 2021, dated 2024)
pEC50: −log10 of the molar value. Counter-ions that a name gives are not always drawn. Like-named read-outs stand apart in the source and are kept apart here.

Legend:
Assay type in all cases: cell-based
5-HT1A = target: T1, 5-HT1A (Homo sapiens, UniProt P08908); test: Calcium mobilization assay (Gq signaling), 5-HT1A
T1 sequence (P08908 1-422): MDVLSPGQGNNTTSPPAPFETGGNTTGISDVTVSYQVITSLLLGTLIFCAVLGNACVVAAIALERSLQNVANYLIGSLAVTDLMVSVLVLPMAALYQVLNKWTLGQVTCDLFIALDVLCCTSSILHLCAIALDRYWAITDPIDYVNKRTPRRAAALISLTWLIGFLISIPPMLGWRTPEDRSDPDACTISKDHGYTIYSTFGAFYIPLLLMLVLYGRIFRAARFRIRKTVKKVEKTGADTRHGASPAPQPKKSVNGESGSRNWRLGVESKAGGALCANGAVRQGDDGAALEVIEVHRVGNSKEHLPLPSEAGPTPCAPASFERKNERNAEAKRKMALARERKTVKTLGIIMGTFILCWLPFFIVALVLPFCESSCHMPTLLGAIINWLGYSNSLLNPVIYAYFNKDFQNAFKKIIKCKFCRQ
Description: (§1) The Calcium No-Wash^PLUS assay monitors the activation of a GPCR via Gq secondary messenger signaling in a live cell, non-imaging assay format. Calcium mobilization in PathHunter® cell lineSOR other cell lines stably expressing Gq-Coupled GPCR5 is monitored using a calcium-sensitive dye that is loaded into cells. GPCR activation by a compound results in the release of calcium from intracellular stores and an increase in dye fluorescence that is measured in real-time.
(§2) Cell lines expressing the GPCR of interest were expanded from freezer stocks according to standard procedures. […] Compound agonist activity was measured on a FLIPR Tetra (MDS). Calcium mobilization was monitored for 2 minutes and 10 μL 4× sample in HB SS/20 mM Hepes was added to the cells 5 seconds into the assay. Compound activity data was analyzed using CBIS data analysis suite (ChemInnovation, California). For agonist mode assays, percentage activity is calculated using the following formula: % Activity=100%×(mean RFU of test sample−mean RFU of vehicle control)/(mean MAX RFU control ligand−mean RFU of vehicle control). […]
(§3) Compounds 1-1·HCl, 1-2 and 2-1 were assessed for biological activity across a panel of 5-HT receptors including 5-HT2A, 5-HT2B, 5-HT2C and 5-HT1A. Biased signaling was assessed by monitoring both intracellular Gq-mediated calcium release, as well as beta-arrestin activation and recruitment to the GPCR.

5-HT2B = 5-HT2B (Homo sapiens, UniProt P41595); test: Calcium mobilization assay (Gq signaling), 5-HT2B
Description: as §1
Cell lines expressing the GPCR of interest were expanded from freezer stocks according to standard procedures. Cells were seeded in a total volume of 20 μL into black-walled, clear-bottom, Poly-D-lysine coated 384-well microplates and incubated at 37° C. for the appropriate time prior to testing. Assays were performed in 1× Dye Loading Buffer consisting of 1× Dye, 1× Additive A and 2.5 mM Probenecid in HB SS/20 mM Hepes. Probenicid was prepared fresh. Cells were loaded with dye prior to testing. Media was aspirated from cells and replaced with 20 μL Dye Loading Buffer. Cells were incubated for 30-60 minutes at 37° C. For agonist determination, cells were incubated with sample to induce response. After dye loading, cells were removed from the incubator and 10 μL HBSS/20 mM Hepes was added. […] Compound agonist activity was measured on a FLIPR Tetra (MDS). Calcium mobilization was monitored for 2 minutes and 10 μL 4× sample in HB SS/20 mM Hepes was added to the cells 5 seconds into the assay. Compound activity data was analyzed using CBIS data analysis suite (ChemInnovation, California). For agonist mode assays, percentage activity is calculated using the following formula: % Activity=100%×(mean RFU of test sample−mean RFU of vehicle control)/(mean MAX RFU control ligand−mean RFU of vehicle control). […]
as §3

5-HT2C = target: T2, 5-HT2C (Homo sapiens, UniProt P28335); test: Calcium mobilization assay (Gq signaling), 5-HT2C
T2 sequence (P28335 33-458): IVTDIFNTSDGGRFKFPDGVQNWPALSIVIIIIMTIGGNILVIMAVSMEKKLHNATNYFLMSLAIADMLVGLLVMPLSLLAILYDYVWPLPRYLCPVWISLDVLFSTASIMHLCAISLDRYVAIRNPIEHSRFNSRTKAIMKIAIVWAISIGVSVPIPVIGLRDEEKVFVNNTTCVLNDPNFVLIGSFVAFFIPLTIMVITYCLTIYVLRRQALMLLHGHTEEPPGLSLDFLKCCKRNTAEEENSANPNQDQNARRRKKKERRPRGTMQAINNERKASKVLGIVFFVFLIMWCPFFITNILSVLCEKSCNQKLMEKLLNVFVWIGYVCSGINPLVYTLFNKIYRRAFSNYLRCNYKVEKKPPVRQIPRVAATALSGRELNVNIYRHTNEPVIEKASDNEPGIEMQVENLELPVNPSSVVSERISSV
Description: as §1, §2, §3

5HT2A [1] = target: T3, 5HT2A (Homo sapiens, UniProt P28223); test: Calcium mobilization assay (Gq signaling), 5-HT2A; conditions: for type of agonism of 5-HT2A mediated signaling: EC50 profiles, FIG. 1; for Emax: read-out: maximum effect level, Gq signaling
Description: as §1
Cell lines expressing the GPCR of interest were expanded from freezer stocks according to standard procedures. Cells were seeded in a total volume of 20 μL into black-walled, clear-bottom, Poly-D-lysine coated 384-well microplates and incubated at 37° C. for the appropriate time prior to testing. Assays were performed in 1× Dye Loading Buffer consisting of 1× Dye, 1× Additive A and 2.5 mM Probenecid in HB SS/20 mM Hepes. Probenicid was prepared fresh. Cells were loaded with dye prior to testing. Media was aspirated from cells and replaced with 20 μL Dye Loading Buffer. Cells were incubated for 30-60 minutes at 37° C. For agonist determination, cells were incubated with sample to induce response. After dye loading, cells were removed from the incubator and 10 μL HBSS/20 mM Hepes was added. 3× vehicle was included in the buffer when performing agonist dose curves to define the EC80 for subsequent antagonist assays. Cells were incubated for 30 minutes at room temperature in the dark to equilibrate plate temperature. Intermediate dilution of sample stocks was performed to generate 4× sample in assay buffer. Compound agonist activity was measured on a FLIPR Tetra (MDS). Calcium mobilization was monitored for 2 minutes and 10 μL 4× sample in HB SS/20 mM Hepes was added to the cells 5 seconds into the assay. Compound activity data was analyzed using CBIS data analysis suite (ChemInnovation, California). For agonist mode assays, percentage activity is calculated using the following formula: % Activity=100%×(mean RFU of test sample−mean RFU of vehicle control)/(mean MAX RFU control ligand−mean RFU of vehicle control). In these studies, the MAX RFU was generated by using 0.1 μM serotonin for the calcium mobilization assay.
as §3

5HT2A [2] = target: T3, 5HT2A; test: PathHunter β-Arrestin assay, 5-HT2A
Description: PathHunter cell lines (DiscoveRx Eurofins) were expanded from freezer stocks according to standard procedures. Cells were seeded in a total volume of 20 μL into white walled, 384-well microplates and incubated at 37° C. for the appropriate time prior to testing. For agonist determination, cells were incubated with sample to induce response. Intermediate dilution of sample stocks was performed to generate 5× sample in assay buffer. 5 μL of 5× sample was added to cells and incubated at 37° C. or room temperature for 90 to 180 minutes. […] Microplates were read following signal generation with a PerkinElmer Envision™ instrument for chemiluminescent signal detection. Compound activity was analyzed using CBIS data analysis suite (ChemInnovation, California). For agonist mode assays, percentage activity was calculated using the following formula: % Activity=100%×(mean RLU of test sample−mean RLU of vehicle control)/(mean MAX control ligand−mean RLU of vehicle control). […]
as §3

5HT2A [3] = target: T3, 5HT2A; test: 5HT2A Activity (% Max Activation @ 0.3 uM)

T3 sequence (P28223 whole entry): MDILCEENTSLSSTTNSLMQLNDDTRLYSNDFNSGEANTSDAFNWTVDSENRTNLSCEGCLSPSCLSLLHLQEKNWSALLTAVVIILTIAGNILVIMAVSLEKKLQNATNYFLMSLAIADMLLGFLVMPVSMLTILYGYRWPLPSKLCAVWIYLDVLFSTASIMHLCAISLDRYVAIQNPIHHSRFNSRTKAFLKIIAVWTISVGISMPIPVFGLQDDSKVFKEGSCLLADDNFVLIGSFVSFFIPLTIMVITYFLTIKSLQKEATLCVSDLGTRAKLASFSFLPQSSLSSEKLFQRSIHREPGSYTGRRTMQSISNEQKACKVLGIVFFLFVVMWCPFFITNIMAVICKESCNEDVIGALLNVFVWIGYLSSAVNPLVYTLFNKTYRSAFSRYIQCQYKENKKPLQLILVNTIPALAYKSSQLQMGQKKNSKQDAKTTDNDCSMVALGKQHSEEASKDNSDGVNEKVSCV
Sequence of 5-HT2B (P41595 whole entry): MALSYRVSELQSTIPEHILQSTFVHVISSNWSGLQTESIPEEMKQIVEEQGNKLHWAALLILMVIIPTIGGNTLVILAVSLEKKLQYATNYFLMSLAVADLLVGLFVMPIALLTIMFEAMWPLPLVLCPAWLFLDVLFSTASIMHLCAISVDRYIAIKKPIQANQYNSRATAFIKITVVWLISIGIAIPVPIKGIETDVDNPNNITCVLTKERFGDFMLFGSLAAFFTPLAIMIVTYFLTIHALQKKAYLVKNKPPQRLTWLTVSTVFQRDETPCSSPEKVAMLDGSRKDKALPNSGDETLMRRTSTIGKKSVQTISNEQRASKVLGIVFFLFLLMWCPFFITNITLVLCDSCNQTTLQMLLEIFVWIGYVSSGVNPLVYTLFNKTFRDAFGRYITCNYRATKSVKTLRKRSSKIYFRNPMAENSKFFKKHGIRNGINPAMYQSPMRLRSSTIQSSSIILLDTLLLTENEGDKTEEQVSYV

COc1ccc(OC)c2c1CCC(NCc1cc(C)cc(Cl)c1)C2 (centres unmarked) [1-1·HCl, N-(3-chloro-5-methylbenzyl)-5,8-dimethoxy-1,2,3,4-tetrahydronaphthalen-2-amine hydrochloride]
pEC50 (5-HT1A; Gq signaling, read-out: EC50, 5-HT1A (Gq signaling)): 4.77 | pEC50 (5-HT2B; Gq signaling, read-out: EC50, 5-HT2B (Gq signaling)): 4.64 | pEC50 (5-HT2C; Gq signaling, read-out: EC50, 5-HT2C (Gq signaling)): 5.00 | pEC50 (5HT2A [1]): 6.87 | type of agonism of 5-HT2A mediated signaling (5HT2A [1]): full-agonism | Emax (5HT2A [1]): ~100% | pEC50 (5HT2A [2]): 6.76

COc1ccc(OC)c(CCNCc2cc(C)cc(Cl)c2)c1 [Compound 2-1, N-(3-chloro-5-methylbenzyl)-2-(2,5-dimethoxyphenyl)ethan-1-amine]
pEC50 (5-HT1A): 4.61 | pEC50 (5-HT2B): 4.36 | activity at 5-HT2B (5-HT2B; concentrations less than 10 uM): no appreciable activity | pEC50 (5-HT2C): 7.04 | pEC50 (5HT2A [1]): 8.00 | selectivity for 5-HT2A over 5-HT2B (5HT2A [1]; 5-HT2A compared to 5-HT2B): ~4400 fold | type of agonism of 5-HT2A mediated signaling (5HT2A [1]): partial-agonist | Emax (5HT2A [1]): ~86% | pEC50 (5HT2A [2]): 7.64 | Emax at 0.3 µM (5HT2A [3]): 98%

COc1cc(SC)c(OC)cc1CCNCc1cc(C)cc(Cl)c1 [Compound 2-24, N-(3-chloro-5-methylbenzyl)-2-(2,5-dimethoxy-4-(methylthio)phenyl)ethan-1-amine]
Emax at 0.3 µM (5HT2A [3]): 91%

COc1cc([S+](C)[O-])c(OC)cc1CCNCc1cc(C)cc(Cl)c1 (centres unmarked) [Compound 2-25, N-(3-chloro-5-methylbenzyl)-2-(2,5-dimethoxy-4-(methylsulfinyl)phenyl)-ethan-1-amine]
Emax at 0.3 µM (5HT2A [3]): 95%

COc1cc(S(C)(=O)=O)c(OC)cc1CCNCc1cc(C)cc(Cl)c1 [Compound 2-26, (3-chloro-5-methylbenzyl)-2-(2,5-dimethoxy-4-(methylsulfonyl)phenyl)ethan-1-amine]
Emax at 0.3 µM (5HT2A [3]): 95%

COc1ccc(OC)c(CC(CO)NCc2cc(C)cc(Cl)c2)c1 (centres unmarked) [Compound 2-29, 2-((3-chloro-5-methylbenzyl)amino)-3-(2,5-dimethoxyphenyl)propan-1-ol]
Emax at 0.3 µM (5HT2A [3]): 27%

COc1ccc(OC)c(C(O)CNCc2cc(C)cc(Cl)c2)c1 (centres unmarked) [Compound 2-30, 2-((3-chloro-5-methylbenzyl)amino)-1-(2,5-dimethoxyphenyl)ethan-1-ol]
Emax at 0.3 µM (5HT2A [3]): 80%

COc1cc(N2CCOCC2)c(OC)cc1CCNCc1cc(C)cc(Cl)c1 [Compound 2-31, N-(3-chloro-5-methylbenzyl)-2-(2,5-dimethoxy-4-morpholinophenyl)ethan-1-amine]
Emax at 0.3 µM (5HT2A [3]): 41%

COc1ccc(OC)c([C@@H](O)CNCc2cc(C)cc(Cl)c2)c1 [Compound 2-32, (R)-2-((3-chloro-5-methylbenzyl)amino)-1-(2,5-dimethoxyphenyl)ethan-1-ol]
Emax at 0.3 µM (5HT2A [3]): 83%

COc1ccc(OC)c([C@H](O)CNCc2cc(C)cc(Cl)c2)c1 [Compound 2-33, (S)-2-((3-chloro-5-methylbenzyl)amino)-1-(2,5-dimethoxyphenyl)ethan-1-ol]
Emax at 0.3 µM (5HT2A [3]): 39%

COc1cc([S@](C)(=N)=O)c(OC)cc1CCNCc1cc(C)cc(Cl)c1 [Compound 2-34, (R)-(4-(2-((3-chloro-5-methylbenzyl)amino)ethyl)-2,5-dimethoxyphenyl)(imino)(methyl)-16-sulfanone]
Emax at 0.3 µM (5HT2A [3]): 56%

COc1cc([S@@](C)(=N)=O)c(OC)cc1CCNCc1cc(C)cc(Cl)c1 [Compound 2-35, (S)-(4-(2-((3-chloro-5-methylbenzyl)amino)ethyl)-2,5-dimethoxyphenyl)(imino)(methyl)-16-sulfanone]
Emax at 0.3 µM (5HT2A [3]): 50%

COc1ccc(OC)c(CCNCc2cc(C)cc(C#N)c2)c1 [Compound 2-36, 3-(((2,5-dimethoxyphenethyl)amino)methyl)-5-methylbenzonitrile]
Emax at 0.3 µM (5HT2A [3]): 16%

COc1ccc(OC)c([C@@H](O)CNCc2cc(C)cc(F)c2)c1 [Compound 2-41, (R)-1-(2,5-dimethoxyphenyl)-2-((3-fluoro-5-methylbenzyl)amino)ethan-1-ol hydrochloride]
Emax at 0.3 µM (5HT2A [3]): 74%
